Assay results: ChEMBL document CHEMBL3046028, “3D-QSAR study of tyrosine and propanoic acid derivatives as PPAR/ dual agonists using CoMSIA” (Med Chem Res, 2013)

Key:
[1] = target: T1, Peroxisome proliferator-activated receptor alpha (Homo sapiens, UniProt Q07869); test: Transactivation of GAL4-fused Homo sapiens (human) PPARalpha […] expressed in African green monkey CV1 cells by luciferase reporter gene assay; type: cell-based, CV-1
T1 sequence (Q07869 whole entry): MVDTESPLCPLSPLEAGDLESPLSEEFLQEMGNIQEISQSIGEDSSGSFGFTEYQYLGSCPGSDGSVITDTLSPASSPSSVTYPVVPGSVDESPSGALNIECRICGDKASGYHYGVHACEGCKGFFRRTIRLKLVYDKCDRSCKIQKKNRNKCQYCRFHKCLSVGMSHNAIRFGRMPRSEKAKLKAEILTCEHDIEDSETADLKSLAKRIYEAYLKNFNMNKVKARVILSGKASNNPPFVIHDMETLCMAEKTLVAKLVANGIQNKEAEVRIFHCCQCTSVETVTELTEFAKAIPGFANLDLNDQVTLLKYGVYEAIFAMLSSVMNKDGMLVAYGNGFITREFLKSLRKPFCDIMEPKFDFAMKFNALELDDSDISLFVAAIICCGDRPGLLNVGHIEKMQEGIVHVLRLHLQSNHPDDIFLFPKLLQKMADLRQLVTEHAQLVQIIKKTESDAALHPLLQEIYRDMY

[2] = target: T2, Peroxisome proliferator-activated receptor gamma (Homo sapiens, UniProt P37231); type: cell-based, CV-1
T2 sequence (P37231 whole entry): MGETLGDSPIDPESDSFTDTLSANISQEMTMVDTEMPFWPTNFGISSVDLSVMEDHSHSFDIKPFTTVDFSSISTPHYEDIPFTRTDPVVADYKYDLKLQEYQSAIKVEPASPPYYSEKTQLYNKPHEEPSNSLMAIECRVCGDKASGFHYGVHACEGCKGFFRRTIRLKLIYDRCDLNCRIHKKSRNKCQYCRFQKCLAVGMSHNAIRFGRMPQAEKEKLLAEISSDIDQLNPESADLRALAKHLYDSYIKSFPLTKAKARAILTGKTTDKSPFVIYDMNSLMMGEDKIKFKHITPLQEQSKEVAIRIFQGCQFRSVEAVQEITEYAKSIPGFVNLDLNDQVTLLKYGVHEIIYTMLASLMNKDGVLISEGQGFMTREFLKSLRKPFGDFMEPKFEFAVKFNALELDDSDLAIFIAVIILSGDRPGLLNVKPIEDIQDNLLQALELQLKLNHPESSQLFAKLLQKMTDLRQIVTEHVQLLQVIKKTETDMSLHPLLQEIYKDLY
Description: Transactivation of GAL4-fused Homo sapiens (human) PPARgamma DNA binding domain expressed in African green monkey CV1 cells by luciferase reporter gene assay

In the case of `CCO[C@@H](Cc1ccc(OC/C=C(/c2ccccc2)c2ccc(-c3ccccc3)cc2)cc1)C(=O)O`, the EC50 ([1]; read-out: pEC50 (converted)) is reported as 692 nM.
`Cc1oc(-c2ccccc2)nc1CCOc1ccc(C[C@@]2(C(=O)O)CCOCCO2)cc1` showed an EC50 ([1]; read-out: EC50) of 6900 nM and an EC50 [2] of 24 nM.
`CCO[C@@H](Cc1ccc(OC/C=C(/c2ccccc2)c2ccc(F)cc2)cc1)C(=O)O` showed an EC50 ([1]; read-out: pEC50 (converted)) of 3160 nM.
Molecule `Cc1oc(-c2ccccc2)nc1CCOc1ccc(C[C@]2(C(=O)O)C=CC=CO2)cc1` has an EC50 [2] of 20 nM.
`Cc1sc(-c2ccccc2)nc1CCOc1ccc(C[C@@](O)(C(=O)O)c2ccccc2C(=O)c2ccccc2)cc1` showed an EC50 ([1]; read-out: EC50) of 1050 nM and an EC50 [2] of 0.1 nM.
In the case of `COC(=O)c1ccccc1[C@@](O)(Cc1ccc(OCCc2nc(-c3ccccc3)oc2C)cc1)C(=O)O`, the EC50 ([1]; read-out: EC50) is reported as 3500 nM and the EC50 [2] is reported as 0.71 nM.
`Cc1sc(N2CCN(C)CC2)nc1CCOc1ccc(C[C@@](O)(C(=O)O)c2ccccc2C(=O)c2ccccc2)cc1` showed an EC50 ([1]; read-out: EC50) of 6460 nM and an EC50 [2] of 1.29 nM.
With `Cc1oc(-c2ccccc2)nc1CCOc1ccc(C[C@@](O)(C(=O)O)c2ccccc2C(=O)c2ccccc2)cc1` the EC50 ([1]; read-out: EC50) was 457 nM and the EC50 [2] was 0.34 nM.
